Test results as given in ChEMBL document CHEMBL4265943, “Design and synthesis of potent dual inhibitors of JAK2 and HDAC based on fusing the pharmacophores of XL019 and vorinostat” (Eur J Med Chem, 2018).

Experiments:
[1] = test system: PC-3; assay: Induction of apoptosis in human PC3 cells assessed as necrotic cells at 1.07 uM after 72 hrs by Annexin V-FITC/propidium iodide staining based flow cytometry (reference value: 0.66%); format: functional
[2] = test system: MCF7; assay: Induction of apoptosis in human MCF7 cells assessed as live cells at 1.64 uM after 72 hrs by Annexin V-FITC/propidium iodide staining based flow cytometry (reference value: 95.05%); format: functional
[3] = test system: MCF7; assay: Induction of apoptosis in human MCF7 cells assessed as necrotic cells at 1.64 uM after 72 hrs by Annexin V-FITC/propidium iodide staining based flow cytometry (reference value: 2.17%); format: functional
[4] = Selectivity index, ratio of CC50 for mouse TAMH cells to IC50 for human MDA-MB-231 cells; format: toxicity; details: TAMH cells (CC50) and MDA-MB-231 cells (IC50)
[5] = Antiproliferative activity against human AC10 cells after 72 hrs by MTT assay; format: cell-based
[6] = Selectivity index, ratio of CC50 for mouse TAMH cells to IC50 for human PC3 cells; format: toxicity; details: TAMH cells (CC50) and PC3 cells (IC50)
[7] = test system: PC-3; assay: Induction of apoptosis in human PC3 cells assessed as live cells at 1.07 uM after 72 hrs by Annexin V-FITC/propidium iodide staining based flow cytometry (reference value: 96.36%); format: functional
[8] = test system: MDA-MB-231; assay: Induction of apoptosis in human MDA-MB-231 cells assessed as late apoptotic cells at 0.85 uM after 72 hrs by Annexin V-FITC/propidium iodide staining based flow cytometry (reference value: 2.12%); format: functional
[9] = test system: PC-3; assay: Antiproliferative activity against human PC3 cells after 72 hrs by MTT assay; format: functional, cell-based; details: PC-3, 72 h
[10] = test system: PC-3; assay: Induction of apoptosis in human PC3 cells assessed as late apoptotic cells at 1.07 uM after 72 hrs by Annexin V-FITC/propidium iodide staining based flow cytometry (reference value: 1.01%); format: functional
[11] = target: Tyrosine-protein kinase JAK2 (Homo sapiens, UniProt O60674); assay: Inhibition of human JAK2 using poly(Glu:Tyr)(4:1) as substrate preincubated for 20 mins followed by [gamma33P]ATP addition measured after 120 mins by ion exchange filter paper method
[12] = test system: PC-3; assay: Induction of apoptosis in human PC3 cells assessed as early apoptotic cells at 1.07 uM after 72 hrs by Annexin V-FITC/propidium iodide staining based flow cytometry (reference value: […]%); format: functional
[13] = Selectivity index, ratio of CC50 for mouse TAMH cells to IC50 for human MCF7 cells; format: toxicity; details: TAMH cells (CC50) and MCF7 cells (IC50)
[14] = test system: HCT-116; assay: Induction of apoptosis in human HCT116 cells assessed as necrotic cells at 0.99 uM after 72 hrs by Annexin V-FITC/propidium iodide staining based flow cytometry (reference value: 1.54%); format: functional
[15] = test system: MDA-MB-231; assay: Induction of apoptosis in human MDA-MB-231 cells assessed as necrotic cells at 0.85 uM after 72 hrs by Annexin V-FITC/propidium iodide staining based flow cytometry (reference value: 5.45%); format: functional
[16] = target: Histone deacetylase 1 (Homo sapiens, UniProt Q13547); assay: Inhibition of HDAC1 (unknown origin) using Arg-His-Lys-Lys(Ac) as substrate preincubated with enzyme followed by substrate addition for 2 hrs and measured for 1.5 hrs at 15 mins time interval by fluorescence assay
[17] = Antiproliferative activity against mouse TAMH cells after 72 hrs by MTT assay; format: cell-based
[18] = target: T1, Protein deacetylase HDAC6 (Homo sapiens, UniProt Q9UBN7); assay: Inhibition of HDAC6 (unknown origin) using Arg-His-Lys-Lys(Ac) as substrate preincubated with enzyme followed by substrate addition for 2 hrs and measured for 1.5 hrs at 15 mins time interval by fluorescence assay
T1 sequence (Q9UBN7 whole entry): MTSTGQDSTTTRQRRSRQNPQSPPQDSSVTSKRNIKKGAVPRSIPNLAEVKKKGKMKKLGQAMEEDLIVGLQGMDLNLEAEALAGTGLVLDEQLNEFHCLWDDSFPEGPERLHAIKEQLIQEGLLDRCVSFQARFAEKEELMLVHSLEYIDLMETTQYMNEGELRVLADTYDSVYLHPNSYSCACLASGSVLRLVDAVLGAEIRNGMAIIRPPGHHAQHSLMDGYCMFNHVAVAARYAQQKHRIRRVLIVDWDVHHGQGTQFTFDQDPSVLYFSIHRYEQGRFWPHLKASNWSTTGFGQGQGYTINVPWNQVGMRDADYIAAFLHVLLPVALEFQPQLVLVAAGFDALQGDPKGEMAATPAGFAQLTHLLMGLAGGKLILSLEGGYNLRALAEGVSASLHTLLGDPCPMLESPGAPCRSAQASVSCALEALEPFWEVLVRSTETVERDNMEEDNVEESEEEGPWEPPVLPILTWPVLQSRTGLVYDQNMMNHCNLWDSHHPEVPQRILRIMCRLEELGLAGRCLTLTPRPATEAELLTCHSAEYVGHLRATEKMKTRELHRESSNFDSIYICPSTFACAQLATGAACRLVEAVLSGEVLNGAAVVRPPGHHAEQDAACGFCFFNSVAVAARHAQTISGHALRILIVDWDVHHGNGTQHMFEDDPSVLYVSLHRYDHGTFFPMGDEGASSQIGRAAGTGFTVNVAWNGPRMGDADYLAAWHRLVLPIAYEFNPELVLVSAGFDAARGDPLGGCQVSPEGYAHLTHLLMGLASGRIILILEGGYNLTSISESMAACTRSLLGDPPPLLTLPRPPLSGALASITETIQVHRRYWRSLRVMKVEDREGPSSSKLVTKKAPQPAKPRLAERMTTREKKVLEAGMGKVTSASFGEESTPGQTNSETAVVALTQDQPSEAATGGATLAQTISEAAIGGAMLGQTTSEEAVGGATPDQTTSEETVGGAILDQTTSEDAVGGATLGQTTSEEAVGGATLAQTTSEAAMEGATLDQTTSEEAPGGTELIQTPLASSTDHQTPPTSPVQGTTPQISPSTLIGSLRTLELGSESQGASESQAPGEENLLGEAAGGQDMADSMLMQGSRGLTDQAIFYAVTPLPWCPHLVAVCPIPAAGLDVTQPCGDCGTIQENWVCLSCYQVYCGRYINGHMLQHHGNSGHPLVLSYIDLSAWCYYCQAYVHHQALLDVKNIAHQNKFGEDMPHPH

[19] = Selectivity index, ratio of CC50 for human AC10 cells to IC50 for human PC3 cells; format: toxicity; details: AC10 cells (CC50) and PC3 cells (IC50)
[20] = test system: HCT-116; assay: Antiproliferative activity against human HCT116 cells after 72 hrs by MTT assay; format: functional, cell-based; details: HCT-116, 72 h
[21] = test system: MCF7; assay: Induction of apoptosis in human MCF7 cells assessed as late apoptotic cells at 1.64 uM after 72 hrs by Annexin V-FITC/propidium iodide staining based flow cytometry (reference value: 1.59%); format: functional
[22] = Selectivity index, ratio of CC50 for human AC10 cells to IC50 for human MDA-MB-231 cells; format: toxicity; details: AC10 cells (CC50) and MDA-MB-231 cells (IC50)
[23] = test system: HCT-116; assay: Induction of apoptosis in human HCT116 cells assessed as early apoptotic cells at 0.99 uM after 72 hrs by Annexin V-FITC/propidium iodide staining based flow cytometry (reference value: 1.31%); format: functional
[24] = test system: MDA-MB-231; assay: Antiproliferative activity against human MDA-MB-231 cells after 72 hrs by MTT assay; format: functional, cell-based; details: MDA-MB-231, 72 h
[25] = test system: HCT-116; assay: Induction of apoptosis in human HCT116 cells assessed as live cells at 0.99 uM after 72 hrs by Annexin V-FITC/propidium iodide staining based flow cytometry (reference value: 95.7%); format: functional
[26] = test system: HCT-116; assay: Induction of apoptosis in human HCT116 cells assessed as late apoptotic cells at 0.99 uM after 72 hrs by Annexin V-FITC/propidium iodide staining based flow cytometry (reference value: 1.45%); format: functional
[27] = Selectivity index, ratio of CC50 for human AC10 cells to IC50 for human MCF7 cells; format: toxicity; details: AC10 cells (CC50) and MCF7 cells (IC50)
[28] = test system: MDA-MB-231; assay: Induction of apoptosis in human MDA-MB-231 cells assessed as live cells at 0.85 uM after 72 hrs by Annexin V-FITC/propidium iodide staining based flow cytometry (reference value: 90.98%); format: functional
[29] = test system: MCF7; assay: Antiproliferative activity against human MCF7 cells after 72 hrs by MTT assay; format: functional, cell-based; details: MCF7, 72 h
[30] = test system: MCF7; assay: Induction of apoptosis in human MCF7 cells assessed as early apoptotic cells at 1.64 uM after 72 hrs by Annexin V-FITC/propidium iodide staining based flow cytometry (reference value: 1.19%); format: functional
[31] = test system: MDA-MB-231; assay: Induction of apoptosis in human MDA-MB-231 cells assessed as early apoptotic cells at 0.85 uM after 72 hrs by Annexin V-FITC/propidium iodide staining based flow cytometry (reference value: 1.45%); format: functional

Sequence of Histone deacetylase 1 (Q13547 whole entry): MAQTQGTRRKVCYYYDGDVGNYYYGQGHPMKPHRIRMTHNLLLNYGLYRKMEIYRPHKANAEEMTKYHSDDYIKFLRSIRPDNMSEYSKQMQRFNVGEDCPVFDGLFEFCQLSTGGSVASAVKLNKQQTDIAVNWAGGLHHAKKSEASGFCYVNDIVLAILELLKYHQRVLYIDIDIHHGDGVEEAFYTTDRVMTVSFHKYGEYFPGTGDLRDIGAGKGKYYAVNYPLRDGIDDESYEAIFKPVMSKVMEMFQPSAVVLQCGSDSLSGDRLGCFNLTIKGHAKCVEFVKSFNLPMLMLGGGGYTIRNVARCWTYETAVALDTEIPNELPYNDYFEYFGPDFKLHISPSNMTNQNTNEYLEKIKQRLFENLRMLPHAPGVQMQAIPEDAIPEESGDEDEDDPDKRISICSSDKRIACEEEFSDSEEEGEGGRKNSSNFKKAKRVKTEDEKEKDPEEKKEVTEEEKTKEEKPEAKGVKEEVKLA
Sequence of Tyrosine-protein kinase JAK2 (O60674 whole entry): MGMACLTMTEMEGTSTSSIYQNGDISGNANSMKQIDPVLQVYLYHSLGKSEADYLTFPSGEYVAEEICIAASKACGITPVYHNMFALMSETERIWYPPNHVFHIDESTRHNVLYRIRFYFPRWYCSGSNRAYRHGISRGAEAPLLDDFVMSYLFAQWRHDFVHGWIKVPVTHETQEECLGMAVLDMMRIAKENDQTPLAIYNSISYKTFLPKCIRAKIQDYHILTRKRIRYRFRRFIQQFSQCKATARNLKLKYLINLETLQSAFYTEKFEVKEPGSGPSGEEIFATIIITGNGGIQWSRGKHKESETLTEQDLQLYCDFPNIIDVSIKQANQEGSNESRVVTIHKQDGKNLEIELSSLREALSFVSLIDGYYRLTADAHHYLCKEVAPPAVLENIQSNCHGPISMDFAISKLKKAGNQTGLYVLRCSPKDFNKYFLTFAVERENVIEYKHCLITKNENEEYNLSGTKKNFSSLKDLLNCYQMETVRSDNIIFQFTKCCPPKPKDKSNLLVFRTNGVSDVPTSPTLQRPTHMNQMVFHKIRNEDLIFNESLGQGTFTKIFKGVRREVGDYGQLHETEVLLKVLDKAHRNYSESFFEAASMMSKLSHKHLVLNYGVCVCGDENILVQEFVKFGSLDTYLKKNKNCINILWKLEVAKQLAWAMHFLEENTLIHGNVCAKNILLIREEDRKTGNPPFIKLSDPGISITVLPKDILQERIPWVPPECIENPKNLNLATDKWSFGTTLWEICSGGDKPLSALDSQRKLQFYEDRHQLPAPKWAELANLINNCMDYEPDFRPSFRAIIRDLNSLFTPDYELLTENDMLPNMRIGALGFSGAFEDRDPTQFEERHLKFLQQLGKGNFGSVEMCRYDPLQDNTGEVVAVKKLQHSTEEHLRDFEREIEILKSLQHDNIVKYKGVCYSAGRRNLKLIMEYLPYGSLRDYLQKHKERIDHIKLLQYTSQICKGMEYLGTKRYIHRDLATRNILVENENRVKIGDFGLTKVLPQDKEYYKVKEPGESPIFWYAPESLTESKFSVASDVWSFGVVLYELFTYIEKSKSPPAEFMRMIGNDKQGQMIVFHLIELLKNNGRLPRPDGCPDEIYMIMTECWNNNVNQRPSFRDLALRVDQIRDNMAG

IC50 [9]: 1020 nM
IC50 [11]: 4.6 nM
IC50 [16]: 77 nM
IC50 [18]: 3.1 nM
IC50 [20]: 990 nM
IC50 [24]: 910 nM
IC50 [29]: 1610 nM
Compound: CN1CCN(c2ccc(Nc3nccc(-c4ccc(NC(=O)CCCCCCC(=O)NO)cc4)n3)cc2)CC1
Activity [1]: 1.54%
Activity [2]: 88.21%
Activity [3]: 1.88%
selectivity ratio [4]: 5.98
CC50 at 72 h [5]: 3310 nM
selectivity ratio [6]: 5.33
Activity [7]: 5.35%
Activity [8]: 40.56%
Activity [10]: 19.83%
Activity [12]: 73.28%
selectivity ratio [13]: 3.38
Activity [14]: 4.69%
Activity [15]: 6.84%
CC50 at 72 h [17]: 5440 nM
selectivity ratio [19]: 3.25
Activity [21]: 3.37%
selectivity ratio [22]: 3.64
Activity [23]: 5.87%
Activity [25]: 83.01%
Activity [26]: 6.43%
selectivity ratio [27]: 2.06
Activity [28]: 13.2%
Activity [30]: 6.54%
Activity [31]: 39.4%
